ChEMBL document CHEMBL5316357, “Discovery of Linvencorvir (RG7907), a Hepatitis B Virus Core Protein Allosteric Modulator, for the Treatment of Chronic HBV Infection” (J Med Chem, 2023)
The source made the active and inactive calls. The rule behind the calls is not given here.

What was measured:
[1] = AUC (0-infinity) in rat plasma at 3 mg/kg,po; assay type: ADME, organism-based; set-up: dose 3 mg/kg, route po; details: for AUC: in vivo
Hepatitis B virus [2] = assay: Antiviral activity against HBV stably transfected in human HepG2.2.15 cells assessed as reduction of HBV DNA replication incubated for 5 days by q-PCR analysis; assay type: functional, organism-based; details: HepG2 2.2.15, 120 h
[3] = Half life in mouse plasma at 1 mg/kg,iv; assay type: ADME, organism-based
[4] = Induction of CYP3A4 mRNA expression level in human hepatocytes at 10 uM incubated for 24 hrs by q-PCR analysis; assay type: ADME, cell-based, Hepatocyte
[5] = Clearance in human hepatocyte at 2 uM measured upto 120 mins by LC-MS/MS analysis; assay type: ADME, cell-based; details: hepatocytes
[6] = Ratio of AUC (0 to infinity) in liver to plasma of mouse at 3 mg/kg,po; assay type: ADME, organism-based; details: read-out: Ratio AUC
[7] = AUC (0-infinity) in mouse plasma at 1 mg/kg,iv; assay type: ADME, organism-based; set-up: dose 1 mg/kg, route iv; details: in vivo
[8] = Cytotoxicity against human HepDE19 cells assessed as reduction in cell viability incubated for 5 days by CCK-8 assay; assay type: functional; details: HepDE19, 120 h, time 5 day
[9] = Half life in rat plasma at 1 mg/kg,iv; assay type: ADME, organism-based
[10] = AUC (0-infinity) in rat plasma at 1 mg/kg,iv; assay type: ADME, organism-based; set-up: dose 1 mg/kg, route iv
[11] = AUC (0-infinity) in mouse plasma at 3 mg/kg,po; assay type: ADME, organism-based; set-up: dose 3 mg/kg, route po; details: in vivo
[12] = Octanol-water partition coefficient, logD of the compound at pH 7.4; assay type: physicochemical
[13] = Oral bioavailability in mouse plasma at 3 mg/kg; assay type: ADME, organism-based; details: in vivo
[14] = Clearance in rat hepatocyte at 2 uM measured upto 120 mins by LC-MS/MS analysis; assay type: ADME, cell-based; details: hepatocytes
[15] = Clearance in rat plasma at 1 mg/kg,iv; assay type: ADME, organism-based
[16] = Volume of distribution at steady state in mouse plasma at 1 mg/kg,iv; assay type: ADME, organism-based; details: read-out: Vdss
[17] = AUC (0-infinity) in mouse liver at 3 mg/kg,po; assay type: ADME, organism-based; set-up: dose 3 mg/kg, route po
hERG = hERG (Homo sapiens, UniProt Q12809); assay: (§1) Inhibition of hERG stably expressed in CHO cells by whole-cell voltage-clamp assay; assay type: toxicity, cell-based; details: human, CHO cells stably expressing hERG
[18] = target: Voltage-gated inwardly rectifying potassium channel KCNH2 (Homo sapiens, UniProt Q12809); assay: as §1; assay type: toxicity, cell-based
[19] = Clearance in mouse plasma at 1 mg/kg,iv; assay type: ADME, organism-based
[20] = Volume of distribution at steady state in rat plasma at 1 mg/kg,iv; assay type: ADME, organism-based; details: read-out: Vdss
[21] = Oral bioavailability in rat plasma at 3 mg/kg; assay type: ADME, organism-based; details: for F: in vivo, po, 3 mg/kg
[22] = Clearance in human liver microsomes at 1 uM measured upto 30 mins in presence of NADPH by LC-MS/MS analysis; assay type: ADME, Microsome
Hepatitis B virus [23] = assay: Antiviral activity against AAV-Hepatitis B virus infected in C57BL/6 mouse assessed as reduction of serum HBV DNA level at 6 to 20 mg/kg,po qd for 8 weeks by quantitative real-time PCR analysis; assay type: functional, organism-based; details: dose 6-20 mg/kg
Hepatitis B virus [24] = assay: Antiviral activity against AAV-Hepatitis B virus infected in C57BL/6 mouse assessed as reduction of serum HBeAg level at 6 to 20 mg/kg,po qd for 8 weeks by chemiluminescence immunoassay; assay type: functional, organism-based; details: dose 6-20 mg/kg
Hepatitis B virus [25] = assay: Antiviral activity against AAV-Hepatitis B virus infected in C57BL/6 mouse assessed as reduction of serum HBsAg level at 6 to 20 mg/kg,po qd for 8 weeks by chemiluminescence immunoassay; assay type: functional, organism-based; details: dose 6-20 mg/kg
Hepatitis B virus [26] = assay: Antiviral activity against AAV-Hepatitis B virus infected in C57BL/6 mouse assessed as reduction of serum HBsAg level at 0.03 mg/kg,po qd for 8 weeks by chemiluminescence immunoassay; assay type: functional, organism-based
Hepatitis B virus [27] = assay: Antiviral activity against AAV-Hepatitis B virus infected in C57BL/6 mouse assessed as reduction of serum HBV DNA level at 0.03 mg/kg,po qd for 8 weeks by quantitative real-time PCR analysis; assay type: functional, organism-based
Hepatitis B virus [28] = assay: Antiviral activity against AAV-Hepatitis B virus infected in C57BL/6 mouse assessed as reduction of serum HBeAg level at 0.03 mg/kg,po qd for 8 weeks by chemiluminescence immunoassay; assay type: functional, organism-based

Chain of Voltage-gated inwardly rectifying potassium channel KCNH2 (Q12809 whole entry): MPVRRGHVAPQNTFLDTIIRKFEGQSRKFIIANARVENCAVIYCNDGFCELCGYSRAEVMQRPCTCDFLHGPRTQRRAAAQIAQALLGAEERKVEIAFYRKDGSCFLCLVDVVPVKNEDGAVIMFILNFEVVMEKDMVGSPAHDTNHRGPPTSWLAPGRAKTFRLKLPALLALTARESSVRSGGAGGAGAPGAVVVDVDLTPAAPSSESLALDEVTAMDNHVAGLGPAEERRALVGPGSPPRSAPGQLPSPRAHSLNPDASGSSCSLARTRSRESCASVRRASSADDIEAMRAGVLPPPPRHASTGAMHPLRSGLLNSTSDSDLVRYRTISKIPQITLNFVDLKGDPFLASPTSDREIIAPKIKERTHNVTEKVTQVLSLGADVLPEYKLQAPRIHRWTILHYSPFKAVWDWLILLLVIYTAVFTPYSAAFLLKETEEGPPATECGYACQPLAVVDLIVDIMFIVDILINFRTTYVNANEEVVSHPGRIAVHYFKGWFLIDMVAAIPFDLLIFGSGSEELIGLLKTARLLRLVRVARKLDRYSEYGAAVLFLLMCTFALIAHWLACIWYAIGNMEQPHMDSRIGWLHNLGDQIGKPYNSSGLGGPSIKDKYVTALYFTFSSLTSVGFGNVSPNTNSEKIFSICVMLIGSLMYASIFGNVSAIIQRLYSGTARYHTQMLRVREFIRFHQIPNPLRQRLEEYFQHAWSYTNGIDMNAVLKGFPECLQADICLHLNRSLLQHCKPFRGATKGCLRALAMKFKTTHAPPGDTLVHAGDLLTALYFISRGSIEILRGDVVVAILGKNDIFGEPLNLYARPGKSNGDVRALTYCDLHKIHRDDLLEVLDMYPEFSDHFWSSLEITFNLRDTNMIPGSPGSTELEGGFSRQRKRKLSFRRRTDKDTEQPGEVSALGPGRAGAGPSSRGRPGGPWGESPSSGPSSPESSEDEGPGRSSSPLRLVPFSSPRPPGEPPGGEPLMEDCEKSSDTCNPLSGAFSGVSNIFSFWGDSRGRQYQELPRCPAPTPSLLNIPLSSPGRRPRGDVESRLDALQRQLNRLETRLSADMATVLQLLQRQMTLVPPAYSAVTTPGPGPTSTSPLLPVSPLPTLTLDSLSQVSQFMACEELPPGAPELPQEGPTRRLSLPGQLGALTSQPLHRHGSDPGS
Chain of hERG (Q12809 whole entry): as above

SMILES	EC50 (Hepatitis B virus [2]) [µM]	Activity [4] [%]	CC50 [8] [µM]	logD [12]	IC20 (hERG) [µM]	IC50 [18] [µM]	CLhep predicted at 1 µM [22] [mL/min/kg]	further results
CCOC(=O)C1=C(CN2CCN3C(=O)N(CC(C)(C)C(=O)O)C[C@@H]3C2)NC(c2nccs2)=N[C@H]1c1cccc(F)c1Cl	0.003	1	> 100	1.69	> 10	> 20	0.4	AUC(0-inf) ([1]; plasma): 26 ng·h/mL; half-life [3]: 37.2 min; CLhep predicted at 2 µM [5]: 7 mL/min/kg; Kp [6]: 24; AUC [7]: 471 ng·h/mL; half-life [9]: 108 min; AUC(0-inf) ([10]; plasma): 257 ng·h/mL; AUC [11]: 154 ng·h/mL; F [13]: 33%; CLhep predicted at 2 µM [14]: 17 mL/min/kg; clearance [15]: 65 mL/min/kg; Vd [16]: 1.3 L/kg; AUC(0-inf) [17]: 3760 ng·h/mL; clearance [19]: 35 mL/min/kg; Vd [20]: 4.8 L/kg; bioavailability ([21]; plasma): 10%
COC(=O)C1=C(CN2CCN3C(=O)N(CC4(C(=O)O)CCC4)C[C@@H]3C2)NC(c2nccs2)=N[C@H]1c1ccc(F)cc1Cl	0.011	2.2	> 100		7.2	> 20	2.3	
COC(=O)C1=C(CN2CCN3C(=O)N(C4CCC(C(=O)O)CC4)C[C@@H]3C2)NC(c2nccs2)=N[C@H]1c1ccc(F)cc1Cl (some centres not stated)	0.009	0	70		> 10	> 20	8.1	
COC(=O)C1=C(CN2CCN3C(=O)N(CC(C)(C)C(=O)O)C[C@@H]3C2)NC(c2nccs2)=N[C@H]1c1cccc(F)c1Cl	0.014		> 100	1.21				
CCOC(=O)C1=C(CN2C[C@H]3CN(C)C(=O)N3C[C@@H]2C(=O)O)NC(c2nccs2)=N[C@H]1c1cccc(F)c1Cl	0.002	1.7	> 100		> 10	> 20	5.8	
CCOC(=O)C1=C(CN2C[C@H]3CN(C(C)(C)C)C(=O)N3C[C@@H]2C(=O)O)NC(c2nccs2)=N[C@H]1c1ccc(F)cc1Cl	0.001	4	> 100		2.2	10	5	AUC [1]: 2.7 ng·h/mL; half-life [3]: 30 min; Kp [6]: 607; AUC [7]: 65 ng·h/mL; half-life [9]: 90 min; AUC ([10]; in vivo): 188 ng·h/mL; AUC [11]: 0.4 ng·h/mL; F [13]: 0.7%; clearance [15]: 87 mL/min/kg; Vd [16]: 5.2 L/kg; AUC(0-inf) [17]: 279 ng·h/mL; clearance [19]: 248 mL/min/kg; Vd [20]: 5.4 L/kg; F [21]: 1.4%
COC(=O)C1=C(CN2CCN3C(=O)N(c4ccc(C(=O)O)cc4)C[C@@H]3C2)NC(c2nccs2)=N[C@H]1c1ccc(F)cc1Cl (single isomer, unassigned)	0.002				4	> 10	0.43	
COC(=O)C1=C(CN2CCOC[C@H]2C(=O)O)N=C(c2nccs2)N[C@H]1c1ccc(F)cc1Cl	0.003	110	> 100					
CCOC(=O)C1=C(CN2CCN3C(=O)N(CC(C)(C)C(=O)O)C[C@@H]3C2)N=C(c2nccs2)N[C@H]1c1cccc(F)c1C [LINVENCORVIR]	0.006		> 100					Activity (Hepatitis B virus [23]): Dose-Dependent Effect; Activity (Hepatitis B virus [24]): Dose-Dependent Effect; Activity (Hepatitis B virus [25]): Dose-Dependent Effect
CCOC(=O)C1=C(CN2CCN3C(=O)N(CC(C)C(=O)O)C[C@@H]3C2)NC(c2nccs2)=N[C@H]1c1ccc(F)cc1Cl (some centres not stated)	0.016	2.4	> 100		> 10	> 20	2.7	
COC(=O)C1=C(CN2CCN3C(=O)N(CC(C)(C)C(=O)O)C[C@@H]3C2)NC(c2nccs2)=N[C@H]1c1cccc(F)c1C	0.016		> 100	1.26				
COC(=O)C1=C(CN2CCN3C(=O)N(CC4(C(=O)O)CC4)C[C@@H]3C2)NC(c2nccs2)=N[C@H]1c1ccc(F)cc1Cl	0.011		> 100		2.3	7.8	0.3	
CCOC(=O)C1=C(CN2CCN3C(=O)N(CC(C)(C)C(=O)O)C[C@@H]3C2)NC(c2nccs2)=N[C@H]1c1ccc(F)cc1Cl	0.009		77	1.67				AUC [1]: 70 ng·h/mL; half-life [3]: 54 min; CLhep predicted at 2 µM [5]: 0.6 mL/min/kg; AUC [7]: 323 ng·h/mL; AUC [11]: 38 ng·h/mL; F [13]: 12%; CLhep predicted at 2 µM [14]: 22 mL/min/kg; Vd [16]: 2.2 L/kg; clearance [19]: 58 mL/min/kg; F [21]: 15.6%
CCOC(=O)C1=C(CN2CCN3C(=O)N(CC(C)(C)C(=O)O)C[C@@H]3C2)NC(c2nccs2)=N[C@H]1c1ccc(F)c(F)c1C	0.003		> 100	2				AUC [1]: 43 ng·h/mL; F [21]: 7.4%
COC(=O)C1=C(CN2CCN3C(=O)N(CC(C)(C)C(=O)O)C[C@@H]3C2)NC(c2nccs2)=N[C@H]1c1ccc(F)cc1Cl	0.006	0.6	> 100	1.18	> 10	> 20	2	AUC [1]: 26 ng·h/mL; CLhep predicted at 2 µM [5]: 9.2 mL/min/kg; CLhep predicted at 2 µM [14]: 14 mL/min/kg; F [21]: 7.1%
COC(=O)C1=C(CN2CCN3C(=O)NC[C@@H]3C2)NC(c2nccs2)=N[C@H]1c1ccc(F)cc1Cl	0.002	17	52					
COC(=O)C1=C(CN2CCN3C(=O)N(CC(C)(C)C(=O)O)C[C@@H]3C2)NC(c2nccs2)=N[C@H]1c1ccc(F)c(F)c1C	0.006		94	1.51				AUC [1]: 43 ng·h/mL; CLhep predicted at 2 µM [5]: 2.4 mL/min/kg; CLhep predicted at 2 µM [14]: 16 mL/min/kg; F [21]: 14%
CCOC(=O)C1=C(CN2C[C@H]3CN(C4CC4)C(=O)N3C[C@@H]2C(=O)O)NC(c2nccs2)=N[C@H]1c1ccc(F)cc1Cl	0.002	6	> 100		> 10	> 20	2.7	
C=C1[C@H](CO)[C@@H](O)C[C@@H]1n1cnc2c(=O)[nH]c(N)nc21								Activity (Hepatitis B virus [26]): inactive; Activity (Hepatitis B virus [27]): Active; Activity (Hepatitis B virus [28]): inactive
COC(=O)C1=C(CN2CCN3C(=O)N(CCC(C)(C)C(=O)O)C[C@@H]3C2)NC(c2nccs2)=N[C@H]1c1ccc(F)cc1Cl	0.008	0	> 100				4.6	
